In test [1] the test system is TYRO3-expressing BAF3 cells. The experiment in a line: BAF3-TYRO3 cell proliferation assay (CellTiter-Glo). The format is cell-based, mouse. From the text: To evaluate the cellular potency and selectivity within the TAM receptor family, mouse BAF3 cell lines with stable expression of AXL, MER, or TYRO3 were generated.
The cytoplasmic domain of AXL, MER, or TYRO3 fused with dimerization sequence and HA tag was cloned into a pMSCV (murine stem cell virus) vector with a puromycin-resistance marker to generate three constructs individually by electroporation into BAF3 cells. Single clones that were IL-3-independent and puromycin-resistant were selected and characterized. To evaluate effects on BAF3 cell proliferation, 1000 cells/well of BAF3, BAF3-AXL, BAF3 MER, or BAF3-TYRO3 cells were treated in the presence or absence of Compound 1 at various concentrations (10 concentration points with a three-fold dilution factor from the highest concentration of 10 μM) diluted in RPMI-1640 with 2% FBS for 48 hours in a 384-well plate. Cell viability was measured by ATP assay (CellTiter-Glo Assay, Promega, Madison, Wis.) according to the manufacturer's procedure. The data were converted to percent inhibition relative to DMSO control, and IC50 curves were fitted using GraphPad Prism software.
For orientation: ATP-based viability assays read luminescence as a measure of living cells.

For test [2], the system named is human PBMCs co-cultured with H1299 cells. In words: H1299 / PBMC co-culture cytokine assay. The conditions noted are these: 4 days. It counts as cell-based. As for the experimental part: The ability of Compound 1 to cooperate with checkpoint blockade to further boost antitumor responses was evaluated. H1299 lung cancer cells were co-cultured with stimulated human PBMCs treated with Compound 1, anti-human programmed cell death (PD)-1 antibody retifanlimab or the combination, and production of proinflammatory cytokines was assessed in two different experiments (FIG. 6).
H1299 cells were co-cultured with human PBMCs, each at 4 or 16×10^4 cells/mL in RPMI containing 10% FBS, 100 U/mL of penicillin-streptomycin (ThermoFisher Scientific; #15140-122) and 1× beta-mercaptoethanol (ThermoFisher Scientific; #21985-023). Compound 1 or retifanlimab were added as single agents or in combination to the cells. Anti-CD3 (BD Biosciences #555336), anti-CD28 (BD Biosciences #555725) or SEA (Toxin Technology, Sarasota, Fla.; #AT101red) were added at a final concentration of 1 μg/mL, 0.5 μg/mL or 100 ng/mL, respectively, to stimulate cell growth. Cultures were incubated at 37° C. in 5% CO2 incubator for 4 days. The supernatant was collected for cytokine analysis using a multiplex assay system (custom human ProcartaPlex Luminex kit, ThermoFisher Scientific; #PPX-15-MXRWE6P).

The next test concerns CTG-2426 tumors. In words: PDX model CTG-2426 (myxofibrosarcoma). It counts as in vivo. The note with it: athymic nude mice. From the text: MBT-2 cells were obtained from the Japanese Collection of Research Bioresources Cell Bank and were maintained in DMEM supplemented with 10% FBS. MC38 cells were obtained from the NCI. 4T1 cells were obtained from ATCC and maintained in RPMI media supplemented with 10% FBS. For MBT-2 experiments, 5×10^5 MBT-2 cells were inoculated subcutaneously into the right hind flank of 6- to 8-week-old C3H mice or athymic nude mice (Charles River Laboratories, Wilmington, Mass.). For MC38 studies, 12-week old female C57BL/6 mice were inoculated with brei of MC38 tumors (in-vivo passage 6) into the right hind flank. For 4T1 studies, 7.5×10^5 4 T1 cells were inoculated subcutaneously into the right hind flank of 6- to 8-week-old female BALB/c mice or athymic nude mice (Charles River Laboratories). […] Mice were monitored for tumor growth and overt tolerability over the course of the experiment. […] Tumor volume was calculated using the formula (L×W^2)/2, where L and W refer to the length and width dimensions, respectively. Tumor growth inhibition (TGI) was calculated using the formula (1−(VT/VC))×100, where VT is the tumor volume of the treatment group on the last day of treatment, and VC is the tumor volume of the control group on the last day of treatment. […]
The activity of Compound 1 in sarcoma PDX models was evaluated as described in Example H for PDX models. […] Three mice per group were analyzed. […]

For the compound `CC(C)C(=O)N1CCC(c2cc(-c3ccc(NC(=O)c4cn(C(C)C)c(=O)n(-c5ccccn5)c4=O)cc3)c3c(N)ncnn23)CC1` [Compound 1, N-(4-(4-Amino-7-(1-isobutyrylpiperidin-4-yl)pyrrolo[1,2-f][1,2,4]triazin-5-yl)phenyl)-1-isopropyl-2,4-dioxo-3-(pyridin-2-yl)-1,2,3,4-tetrahydropyrimidine-5-carboxamide], the “selectivity against TYRO3 (cellular)” value in test [1] (BAF3 transfectants) is greater than 30 fold. Further, the IC50 – broadly, the concentration that inhibits the measured activity by half – in test [1] (Mus musculus, BaF3, 48 hours, 2% FBS, read-out: IC50, growth of TYRO3-expressing BAF3 cells) was found to be 0.498 ± 0.161 µM. Besides, the proinflammatory cytokine production result in test [2] (stimulated PBMCs + H1299, FIG. 6) is listed as “induction of proinflammatory cytokines”. Also, the “induction of IFN-γ” value in test [2] (stimulated PBMCs + H1299, FIG. 6B) is reported as “induced”. The “induction of tumor necrosis factor-α” value in test [2] (stimulated PBMCs + H1299, FIG. 6C) is on record as “induced”. The “induction of granulocyte-macrophage colony-stimulating factor” value in test [2] (stimulated PBMCs + H1299, FIG. 6D) is recorded as “induced”. For the same compound, the “induction of IL-12 p70” value in test [2] (stimulated PBMCs + H1299, FIG. 6E) is on record as “moderately induced”. Besides, in the test on CTG-2426 tumors, the “TGI (%)” value was 42%.
